Here are results for one molecule from paper PMC6488038 (Journal of the American Chemical Society, 2018).

Molecules are shown by their SMILES.

The test has as its system HCT116 cells. In words: Cell viability, Alamar Blue assay, HCT116. Type of test: cell-based, human. Conditions: 72 h. A general note: Alamar Blue is a resazurin reagent that responds to reducing activity.

Regarding `N#Cc1c2c(cc3c1C(=O)N[C@@H]1C3=C[C@H](O)[C@@H](O)[C@H]1O)OCO2` [compound 46, 7cyanolycoricidine], the “activity compared to lycoricidine (3)” value was “increased activity”.
